The record followed here is publication PMC3447335, “Evaluation of Pseudopteroxazole and Pseudopterosin Derivatives against Mycobacterium tuberculosis and Other Pathogens” (Marine Drugs, 2012).

In brackets after ≈: the same amount, converted by molar mass.

Holding throughout (test): microbe, parasite or virus in culture
What all share (format): cell-based

In assay [1] the test system is M. tuberculosis H37Rv isogenic strain resistant to isoniazid (INHr). As to conditions: Mycobacterium tuberculosis, read-out: MABA MIC INHr. On the technique in general: Resazurin is reduced to fluorescent resorufin, in cell work by metabolically active cells.
Assay [2] relates to M. tuberculosis H37Rv isogenic strain resistant to streptomycin (SMr). Particulars: Mycobacterium tuberculosis, read-out: MABA MIC SMr.
Assay [3] has as its system M. tuberculosis H37Rv isogenic strain resistant to rifampin (RMPr). Particulars: Mycobacterium tuberculosis, read-out: MABA MIC RMPr.
Assay [4] deals with M. tuberculosis H37Rv isogenic strain resistant to cycloserine (CSr). As to conditions: Mycobacterium tuberculosis, read-out: MABA MIC CSr.
Assay [5] deals with M. tuberculosis H37Rv isogenic strain resistant to kanamycin (KMr). As to conditions: Mycobacterium tuberculosis, read-out: MABA MIC KMr.
Assay [6] concerns M. tuberculosis H37Rv isogenic strain resistant to moxifloxacin (MOXr). Particulars: Mycobacterium tuberculosis, read-out: MABA MIC MOXr.

For the molecule `CC(C)=C[C@@H]1C[C@H](C)[C@H]2CC[C@H](C)c3c2c1c(C)c1ncoc31` [Compound 1, pseudopteroxazole], the MIC in assay [1] was found to be 8 µg/mL (≈ 25.9 µM); in assay [2], 14 µg/mL (≈ 45.2 µM); in assay [3] it was 8 µg/mL (≈ 25.9 µM); in assay [4], 14 µg/mL (≈ 45.2 µM); in assay [5], 16 µg/mL (≈ 51.7 µM); in assay [6] it was 8 µg/mL (≈ 25.9 µM).

Consider `NNC(=O)c1ccncc1` [Isoniazid], for which the MIC in assay [1] was greater than 1.1 µg/mL; in assay [2] it was 0.13 µg/mL (≈ 0.948 µM); in assay [3] it was 0.12 µg/mL (≈ 0.875 µM); in assay [4], 0.12 µg/mL (≈ 0.875 µM); in assay [5], 0.13 µg/mL (≈ 0.948 µM); in assay [6], 0.03 µg/mL (≈ 0.219 µM).

On to `CO[C@H]1/C=C/O[C@@]2(C)Oc3c(C)c(O)c4c(O)c(c(/C=N/N5CCN(C)CC5)c(O)c4c3C2=O)NC(=O)/C(C)=C\C=C\[C@H](C)[C@H](O)[C@@H](C)[C@@H](O)[C@@H](C)[C@H](OC(C)=O)[C@@H]1C` [Rifampin, reference compound], for which the MIC in assay [1] is 0.02 µg/mL (≈ 0.0243 µM); in assay [2], 0.08 µg/mL (≈ 0.0972 µM); in assay [3], greater than 3.3 µg/mL; in assay [4] it was 0.01 µg/mL (≈ 0.0122 µM); in assay [5], 0.02 µg/mL (≈ 0.0243 µM); in assay [6] it was 0.02 µg/mL (≈ 0.0243 µM).
